Positions count from the first letter of the chain named. Read-outs that look alike come from different tables or passages of the source.
Columns and labels:
Test in all cases: URAT1 uric acid transport activity assay
Type in all cases: cell-based
[1] = biological target: T1, r-V25M rURAT1 point mutant (Rattus norvegicus, UniProt Q3ZAV1, V25M)
T1 construct: expressed in transfected cells; host or cells: HEK-293T
T1 sequence (Q3ZAV1 1-553 V25M): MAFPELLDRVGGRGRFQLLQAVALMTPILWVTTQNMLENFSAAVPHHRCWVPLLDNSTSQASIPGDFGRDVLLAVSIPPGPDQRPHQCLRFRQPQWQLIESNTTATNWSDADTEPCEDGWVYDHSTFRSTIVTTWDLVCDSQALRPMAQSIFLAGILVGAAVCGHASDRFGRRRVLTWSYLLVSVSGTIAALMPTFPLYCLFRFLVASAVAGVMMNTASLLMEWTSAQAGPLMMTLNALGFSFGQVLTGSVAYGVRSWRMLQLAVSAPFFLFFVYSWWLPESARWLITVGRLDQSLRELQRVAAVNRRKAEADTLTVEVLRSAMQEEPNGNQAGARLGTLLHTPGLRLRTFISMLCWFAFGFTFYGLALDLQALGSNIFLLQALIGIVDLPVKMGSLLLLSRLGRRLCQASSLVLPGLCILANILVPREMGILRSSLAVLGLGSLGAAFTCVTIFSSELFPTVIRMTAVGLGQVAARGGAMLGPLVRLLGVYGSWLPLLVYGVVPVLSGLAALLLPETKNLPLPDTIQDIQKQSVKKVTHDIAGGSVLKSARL
Summary of the method: (§1)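 Cells expressing site-directed rat URAT1 mutants were exposed to inhibitor dilutions for 5 minutes before radiolabelled uric acid (100 μM) was added for 10 minutes. Potency was derived by nonlinear regression of log inhibitor versus response.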

[2] = biological target: T2, r-Y365F rURAT1 point mutant (Rattus norvegicus, UniProt Q3ZAV1, Y365F); details: for fold increased affinity of r-Y365F compared to rURAT1: from IC50 values
T2 sequence (Q3ZAV1 1-553 Y365F): T1 sequence (Q3ZAV1 1-553 V25M) with M25V, Y365F
Summary of the method: as §1

[3] = biological target: T3, r-V22M rURAT1 point mutant (Rattus norvegicus, UniProt Q3ZAV1, V22M)
T3 sequence (Q3ZAV1 1-553 V22M): T1 sequence (Q3ZAV1 1-553 V25M) with V22M, M25V
Summary of the method: as §1

[4] = r-Y365F, MES pH 5.5, 100 μM 14C-uric acid, read-out: IC50 (uric acid transport)

Q: Which “fold increased affinity of r-V25M compared to rURAT1” value ([1]; from IC50 values) does the source give for `O=C1C(CC[S+]([O-])c2ccccc2)C(=O)N(c2ccccc2)N1c1ccccc1` (stereo not shown) [sulfinpyrazone] here?
A: The value was 49 fold.

Q: And the IC50 ([1]; r-V25M, HEPES pH 7.3, 100 μM 14C-uric acid, read-out: IC50 (uric acid transport))?
A: The IC50 was 14 ± 2.3 µM.

Q: And the “fold increased affinity of r-Y365F compared to rURAT1” value [2]?
A: Its value is 2.7 fold.

Q: What about the IC50 ([2]; r-Y365F, HEPES pH 7.3, 100 μM 14C-uric acid, read-out: IC50 (uric acid transport)) of the same molecule?
A: The IC50 was 255 ± 27 µM.

Q: What about the IC50 ([3]; r-V22M, HEPES pH 7.3, 100 μM 14C-uric acid, read-out: IC50 (uric acid transport)) of the same molecule?
A: Its IC50 is 762 ± 177 µM.

Q: Which “fold increased affinity of r-Y365F compared to rURAT1” value [2] does the source give for `O=c1[nH]c(=O)c2[nH]c(=O)[nH]c2[nH]1` [uric acid] here?
A: Its value is 1.6 fold.

Q: And the IC50 [2, 4]?
A: Its IC50 is 1640 µM.

Q: `O=C(O)CSc1nnc(Br)n1-c1ccc(C2CC2)c2ccccc12` [lesinurad, 2-((5-bromo-4-(4-cyclopropylnaphthalen-1-yl)-4H-1,2,4-triazol-3-yl)thio)acetic acid] was tested. Which IC50 ([1]; r-V25M, MES pH 5.5, 100 μM 14C-uric acid, read-out: IC50 (uric acid transport)) did it give?
A: Its IC50 is 59 ± 17 µM.

Q: What about the IC50 [2, 4] of the same molecule?
A: Its IC50 is 15 ± 3 µM.

Q: What about the IC50 ([3]; r-V22M, MES pH 5.5, 100 μM 14C-uric acid, read-out: IC50 (uric acid transport)) of the same molecule?
A: The IC50 was 74 ± 8.9 µM.

Q: `CCc1oc2ccccc2c1C(=O)c1cc(Br)c(O)c(Br)c1` [benzbromarone] was tested. Which IC50 [1] did it give?
A: Its IC50 is 11 ± 2.7 µM.

Q: What about the IC50 [2] of the same molecule?
A: The IC50 was 9.4 ± 1.6 µM.

Q: What about the IC50 [3] of the same molecule?
A: The IC50 was 20 ± 2.7 µM.
